# According to ChEMBL document CHEMBL5053505, “Rational Remodeling of Atypical Scaffolds for the Design of Photoswitchable Cannabinoid Receptor Tools” (J Med Chem, 2021):
# Activity calls are given as the source filed them. The calls are words filed in the database; no cut-off is given here.
# Tests used:
# Cannabinoid receptor 2 [1] = molecular target: T1, Cannabinoid receptor 2 (Homo sapiens, UniProt P34972); test: Antagonist activity at human CB2 Receptor expressed in CHO cell membranes measured after 24 hrs by HTRF assay; type: functional, Cell membrane
# Cannabinoid receptor 2 [2] = molecular target: T1, Cannabinoid receptor 2; test: Antagonist activity at human CB2 Receptor expressed in CHO-K1 cells assessed as reduction in CP55940-induced ERK1/2 phosphorylation measured Western blot analysis; type: functional, cell-based; details: filed as antagonist
# Cannabinoid receptor 1 [3] = molecular target: T2, Cannabinoid receptor 1 (Homo sapiens, UniProt P21554); test: Antagonist activity at human CB1 Receptor expressed in CHO cell membranes measured after 24 hrs by HTRF assay; type: functional, Cell membrane
# Cannabinoid receptor 1 [4] = molecular target: T2, Cannabinoid receptor 1; test: Antagonist activity at human CB1 Receptor expressed in CHO-K1 cells assessed as reduction in CP55940-induced ERK1/2 phosphorylation measured Western blot analysis; type: functional, cell-based
# T1 sequence (P34972 whole entry): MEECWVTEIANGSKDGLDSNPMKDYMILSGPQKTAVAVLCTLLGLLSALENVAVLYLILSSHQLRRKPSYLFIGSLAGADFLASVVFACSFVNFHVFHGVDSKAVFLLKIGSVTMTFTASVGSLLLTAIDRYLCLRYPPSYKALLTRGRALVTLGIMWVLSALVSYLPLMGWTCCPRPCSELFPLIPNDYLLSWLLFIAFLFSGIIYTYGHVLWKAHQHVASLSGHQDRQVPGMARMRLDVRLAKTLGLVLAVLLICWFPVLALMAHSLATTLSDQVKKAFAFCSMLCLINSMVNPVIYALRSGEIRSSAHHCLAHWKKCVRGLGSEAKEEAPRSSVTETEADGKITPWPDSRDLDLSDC
# T2 sequence (P21554 whole entry): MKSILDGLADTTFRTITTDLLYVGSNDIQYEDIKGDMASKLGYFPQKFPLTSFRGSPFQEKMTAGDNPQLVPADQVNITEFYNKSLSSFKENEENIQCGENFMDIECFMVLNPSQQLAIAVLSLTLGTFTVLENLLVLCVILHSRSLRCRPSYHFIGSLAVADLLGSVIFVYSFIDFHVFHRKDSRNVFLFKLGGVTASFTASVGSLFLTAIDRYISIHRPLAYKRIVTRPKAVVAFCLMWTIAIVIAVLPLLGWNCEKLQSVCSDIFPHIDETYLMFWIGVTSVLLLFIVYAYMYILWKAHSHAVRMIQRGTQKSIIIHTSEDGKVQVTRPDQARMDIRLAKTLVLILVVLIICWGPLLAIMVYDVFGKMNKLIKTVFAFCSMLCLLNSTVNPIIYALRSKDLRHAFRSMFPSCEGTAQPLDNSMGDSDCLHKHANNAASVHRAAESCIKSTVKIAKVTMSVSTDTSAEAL
SMILES,IC50 (Cannabinoid receptor 2 [1]),Activity (Cannabinoid receptor 2 [2]),IC50 (Cannabinoid receptor 1 [3]),Activity (Cannabinoid receptor 1 [4])
Cc1c(C(=O)Nc2ccc(/N=N\c3ccccc3)cc2)nn(CCCCCO)c1-c1ccccc1,9 µM,,,
Cc1c(C(=O)NCc2ccccc2/N=N/c2ccccc2)nn(CCCCCO)c1-c1ccccc1,3.2 µM,Active,1.6 µM,inactive
Cc1c(C(=O)Nc2ccccc2/N=N/c2ccccc2)nn(CCCCCO)c1-c1ccccc1,5.5 µM,,,
Cc1c(C(=O)NCc2cccc(/N=N\c3ccccc3)c2)nn(CCCCCO)c1-c1ccccc1,7 µM,,5.8 µM,
Cc1c(C(=O)NCCc2cccc(/N=N\c3ccccc3)c2)nn(CCCCCO)c1-c1ccccc1,1.6 µM,,3.3 µM,
Cc1c(C(=O)NCCc2ccc(/N=N\c3ccccc3)cc2)nn(CCCCCO)c1-c1ccccc1,5.2 µM,,3.3 µM,
Cc1c(C(=O)NCc2ccc(/N=N/c3ccccc3)cc2)nn(CCCCCO)c1-c1ccccc1,,,8.3 µM,
Cc1c(C(=O)Nc2cccc(/N=N/c3ccccc3)c2)nn(CCCCCO)c1-c1ccccc1,1.5 µM,,6.2 µM,
Cc1c(C(=O)NCCCc2ccccc2/N=N/c2ccccc2)nn(CCCCCO)c1-c1ccccc1,3.4 µM,,9 µM,
Cc1c(C(=O)NCCCc2ccc(/N=N\c3ccccc3)cc2)nn(CCCCCO)c1-c1ccccc1,3.5 µM,,5.4 µM,
Cc1c(C(=O)Nc2cccc(/N=N\c3ccccc3)c2)nn(CCCCCO)c1-c1ccccc1,0.41 µM,,2.4 µM,
Cc1c(C(=O)NCCc2ccccc2/N=N/c2ccccc2)nn(CCCCCO)c1-c1ccccc1,2.1 µM,,3.8 µM,
Cc1c(C(=O)NCCCc2cccc(/N=N\c3ccccc3)c2)nn(CCCCCO)c1-c1ccccc1,1.1 µM,,3.8 µM,
Cc1c(C(=O)NCCCc2cccc(/N=N/c3ccccc3)c2)nn(CCCCCO)c1-c1ccccc1,3.7 µM,,4.8 µM,
Cc1c(C(=O)NCCCc2ccc(/N=N/c3ccccc3)cc2)nn(CCCCCO)c1-c1ccccc1,,,7.2 µM,
Cc1c(C(=O)NCCc2cccc(/N=N/c3ccccc3)c2)nn(CCCCCO)c1-c1ccccc1,6.5 µM,,5.9 µM,
Cc1c(C(=O)NCCc2ccc(/N=N/c3ccccc3)cc2)nn(CCCCCO)c1-c1ccccc1,,,7.9 µM,
Cc1c(C(=O)NCc2ccccc2/N=N\c2ccccc2)nn(CCCCCO)c1-c1ccccc1,0.07 µM,Active,1.1 µM,inactive
Cc1c(C(=O)NCc2cccc(/N=N/c3ccccc3)c2)nn(CCCCCO)c1-c1ccccc1,,,9.4 µM,
Cc1c(C(=O)NCc2ccc(/N=N\c3ccccc3)cc2)nn(CCCCCO)c1-c1ccccc1,6.9 µM,,4.1 µM,
Cc1c(C(=O)NCCc2ccccc2/N=N\c2ccccc2)nn(CCCCCO)c1-c1ccccc1,0.36 µM,,1.7 µM,
Cc1c(C(=O)Nc2ccccc2/N=N\c2ccccc2)nn(CCCCCO)c1-c1ccccc1,0.62 µM,,,
Cc1c(C(=O)NCCCc2ccccc2/N=N\c2ccccc2)nn(CCCCCO)c1-c1ccccc1,1.3 µM,,3.9 µM,
